Patent publication US9499486B2, “Kinase inhibitor” (RESPIVERT LIMITED, priority 2014, dated 2016)
Values after ≈ are worked out from the molar mass of the structure shown. Where two headings read alike, the source gives them in different places.

Legend:
[1] = molecular target: B-Raf (V600E) (Homo sapiens (Human), UniProt P15056, V600E); assay: KINOMEscan binding of B-Raf (V600E) to standard ligand
Excerpt: (§1) These assays may be conducted by DiscoverX (formerly Ambit; San Diego, Calif.).

[2] = tested on: Jurkat cells; assay: Cell cytotoxicity assay (assay r); type: cell-based, human
Description: 1×10^5 Jurkat cells (immortalised human T lymphocytes) are added to the appropriate number of wells of a 96 well plate in 100 μL of media (RPMI supplemented with 10% foetal bovine serum). 1 μL of DMSO control (final concentration 1.0% v/v) or test compound (final concentration 20, 5 or 1 μg/mL) is added to the wells and incubated at 37° C., 5% CO2. After 24 hours, the plate is centrifuged at 1200 rpm for 3 minutes and the supernatant discarded. Cells are then resuspended in 150 μL (final concentration 7.5 μg/mL) of propidium iodide (PI) in PBS and incubated at 37° C., 5% CO2 for 15 minutes. After 15 minutes, cells are analysed by flow cytometry (BD accuri) using the FL3 window. The % viability is calculated as the % of cells that are PI negative in the test wells normalised to the DMSO control.

[3] = tested on: Salmonella typhimurium, strains TA1535, TA1537, TA98 and TA100 and Escherichia coli, WP2 uvrA; assay: Bacterial reverse mutation screen (plate incorporation)
[4] = molecular target: p38 MAPKα (Homo sapiens (Human), UniProt Q16539); assay: KINOMEscan dissociation constant, p38 MAPKα; type: binding
Excerpt: as §1

[5] = molecular target: B-Raf (Homo sapiens (Human), UniProt P15056); assay: KINOMEscan binding of B-Raf to standard ligand
Excerpt: as §1

[6] = tested on: LPS-stimulated rats; assay: Endotoxin-induced uveitis in rats; type: in vivo, rat; details: mean ± SEM; for IL-1β Anterior tissue / IL-1β Posterior tissue: LPS-stimulated rats; for Cell counts: aqueous humor
Description: Male, Lewis rats (6-8 weeks old, Charles River UK Limited) are housed in cages of 3 at 19-21° C. with a 12 h light/dark cycle (07:00/19:00) and fed a standard diet of rodent chow and water ad libitum. Non-fasted rats are weighed, individually identified on the tail with a permanent marker, and receive a single intravitreal administration into the right vitreous humor (5 μL dose volume) of 100 ng/animal of LPS (Escherichia coli 0111:B4 prepared in PBS, Sigma Aldrich, UK) using a 32-gauge needle. Untreated rats are injected with PBS. Test compound or vehicle (4% polyoxyl 40 stearate, 4% mannitol in PBS (pH 7.4)) are administered by the topical route onto the right eye (10 μL) of animals 1 hour prior to LPS, at the time of LPS administration, and 1, 2 and 4 hours post LPS administration. Before administration, the solution to be administered is sonicated to ensure a clear solution. 6 hours after LPS dosing, animals are euthanized by overdose with pentobarbitone (via cardiac puncture). Immediately after euthanasia, 10 μL of aqueous humor is collected from the right eye of the rats by puncture of the anterior chamber using a 32 gauge needle under a surgical microscope. The aqueous humor is diluted in 20 μL of PBS and total cell counts are measured immediately using a Countess automated cell counter (Invitrogen). Following collection of the aqueous humour, the right eye of each animal is enucleated and dissected into front (anterior) and back (posterior) sections around the lens. Each section is weighed and homogenised in 500 μL of sterile phosphate buffered saline followed by 20 minutes centrifugation at 12000 rpm at 4° C. The resulting supernatant is divided into 3 aliquots and stored at −80° C. until subsequent cytokine analysis by R&D DuoSet ELISA.

[7] = Solubility in fasted-state simulated colonic fluid (FaSSCoF); type: physicochemical
Description: The solubility of the compound of the invention in FaSSCoF at pH 6.5 is determined using a modification of a previously-reported procedure (Vertzoni, M., et al. Pharm. Res. 2010, 27, 2187-2196). In place of the bile salt extract employed in the original procedure (which extract is no longer available), the modified procedure uses a mixture of sodium taurochlorate (0.15 g), glycocholic acid (0.15 g), ursodeoxycholic acid (0.05 g), cholic acid (0.05 g), and glycodeoxycholic acid (0.05 g). These five bile acids are ground together with a mortar and pestle to produce a fine white powder that is incorporated into the FaSSCoF, as outlined below.
FaSSCoF medium: Tris(hydroxymethyl)aminomethane (Tris; 0.275 g) and maleic acid (0.44 g) are dissolved in water (35 mL) to give a solution whose pH is adjusted to 6.5 by treatment with 0.5M NaOH (ca. 12 mL). The solution is then made up to 50 mL with water. A portion of this Tris/maleate buffer solution (ca. 25 mL) is added to a 0.5 L round-bottomed flask, before being treated with 0.00565 g of the bile acid mixture described above. Solutions of phosphatidylcholine (0.0111 g) in DCM (0.15 mL) and palmitic acid (0.0013 g) in DCM (0.15 mL) are added, then the organic solvent is evaporated off under reduced pressure at 40° C. until a clear solution, with no perceptible DCM odour, is achieved. The volume of the evaporated solution is adjusted to 50 mL by addition of the remainder of Tris/maleate buffer, then BSA (0.115 g) is added, before being dissolved by gentle agitation.
Solubility Determination: Test compounds are suspended in the pH 6.5 FaSSCoF medium to give a maximum final concentration of 2-10 mg/mL. The suspensions are equilibrated at 25° C. for 24 h, before being filtered through a glass fibre C filter. The filtrates are then diluted as appropriate for injection and quantification by HPLC with reference to a standard. Different volumes of the standard, diluted and undiluted sample solutions are injected and the solubilities are calculated using the peak areas determined by integration of the peak found at the same retention time as the principal peak in the standard injection.

[8] = tested on: eyes of albino New Zealand White rabbits

B-Raf (V600E), sequence (P15056 whole entry V600E): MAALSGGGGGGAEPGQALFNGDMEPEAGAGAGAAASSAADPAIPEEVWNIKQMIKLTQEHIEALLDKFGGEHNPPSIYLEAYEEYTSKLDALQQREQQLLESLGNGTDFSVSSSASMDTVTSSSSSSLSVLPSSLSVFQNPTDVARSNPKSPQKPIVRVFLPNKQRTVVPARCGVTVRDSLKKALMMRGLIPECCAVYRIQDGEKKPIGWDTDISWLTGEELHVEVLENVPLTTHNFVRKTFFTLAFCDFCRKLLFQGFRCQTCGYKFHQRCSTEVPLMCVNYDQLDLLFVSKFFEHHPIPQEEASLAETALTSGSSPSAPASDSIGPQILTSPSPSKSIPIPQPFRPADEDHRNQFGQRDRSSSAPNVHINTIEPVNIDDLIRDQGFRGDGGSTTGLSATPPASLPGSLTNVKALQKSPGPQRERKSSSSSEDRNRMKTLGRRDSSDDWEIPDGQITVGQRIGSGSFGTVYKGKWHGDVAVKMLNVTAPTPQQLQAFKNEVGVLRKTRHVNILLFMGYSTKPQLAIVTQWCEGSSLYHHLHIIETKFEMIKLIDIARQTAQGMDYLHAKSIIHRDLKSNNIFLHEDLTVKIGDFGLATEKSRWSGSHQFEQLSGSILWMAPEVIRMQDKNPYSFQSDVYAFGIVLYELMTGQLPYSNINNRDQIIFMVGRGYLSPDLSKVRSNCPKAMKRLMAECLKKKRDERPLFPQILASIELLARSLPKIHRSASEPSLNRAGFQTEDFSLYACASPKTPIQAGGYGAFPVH
B-Raf, sequence (P15056 whole entry): as the sequence (P15056 whole entry V600E) above, with E600V counted along it
p38 MAPKα, sequence (Q16539 whole entry, looked up): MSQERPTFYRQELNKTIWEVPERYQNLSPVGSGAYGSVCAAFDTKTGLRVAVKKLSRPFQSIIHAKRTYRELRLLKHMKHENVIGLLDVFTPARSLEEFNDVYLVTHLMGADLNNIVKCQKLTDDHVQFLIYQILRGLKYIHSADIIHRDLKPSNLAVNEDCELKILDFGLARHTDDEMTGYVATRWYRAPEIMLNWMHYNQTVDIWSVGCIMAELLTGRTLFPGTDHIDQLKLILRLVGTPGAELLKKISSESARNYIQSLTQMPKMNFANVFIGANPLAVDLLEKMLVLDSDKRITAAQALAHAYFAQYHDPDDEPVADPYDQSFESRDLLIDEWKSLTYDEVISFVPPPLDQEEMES

## COc1cc(Nc2cc(Oc3ccc(NC(=O)Nc4cc(C(C)(C)C)cc(NS(C)(=O)=O)c4OC)c4ccccc34)ccn2)ccc1C(=O)O [Example 1, 4-((4-((4-(3-(5-(tert-Butyl)-2-methoxy-3-(methylsulfonamido)phenyl)ureido)naphthalen-1-yl)oxy)pyridin-2-yl)amino)-2-methoxybenzoic acid]
[1]
  effect on the binding of B-Raf (V600E) to its standard ligand: did not have any significant effect
[2]; 1 μg/mL, 24 hours
  % Viability at 1 μg/mL: 94.6%
[2]; 5 μg/mL, 24 hours
  % Viability at 5 μg/mL: 96.1%
[2]; 20 μg/mL, 24 hours
  % Viability at 20 μg/mL: 95.8%
[2]; assay (r)
  cytotoxicity compared with Reference Compound: substantially less cytotoxic than the Reference Compound
[3]; 15-1500 μg/plate, all strains, presence and absence of S-9 mix
  mutagenic effects: absence of any mutagenic effects
[3]; 500 and 1500 μg/plate in TA98, 1500 μg/plate in TA1535, presence of S-9 mix
  toxicity of the test item to the bacteria: reduction in the mean colony count
[3]; all strains, presence and absence of S-9 mix, plate incorporation
  limit of solubility in mutation test: 1500 μg/plate
[3]; any strain, any dose level, presence or absence of S-9 mix
  increases in revertant numbers: no dose-related or statistically significant increases
[4]
  Kd: 2.8 nM
[5]
  effect on the binding of B-Raf to its standard ligand: did not have any significant effect
[6]; 0.001 mg/mL topical
  IL-1β Anterior tissue: 1558.1 ± 145.7 pg/mL
  IL-1β Posterior tissue: 867.9 ± 120.8 pg/mL
  Cell counts: 63.6 ± 7.0 ×10^5/mL
[6]; 0.01 mg/mL topical
  IL-1β Anterior tissue: 980.0 ± 110.8 pg/mL
  IL-1β Posterior tissue: 740.5 ± 56.2 pg/mL
  Cell counts: 43.5 ± 6.3 ×10^5/mL
[6]; 0.1 mg/mL topical
  IL-1β Anterior tissue: 791.2 ± 131.9 pg/mL
  IL-1β Posterior tissue: 327.4 ± 61.4 pg/mL
  Cell counts: 30.4 ± 6.7 ×10^5/mL
[6]; 1 mg/mL topical
  IL-1β Anterior tissue: 367.3 ± 100.4 pg/mL
  IL-1β Posterior tissue: 188.1 ± 54.7 pg/mL
  Cell counts: 21.9 ± 5.0 ×10^5/mL
[7]; fasted-state simulated colonic fluid (FaSSCoF), 25 °C, fassgf or other biorelevant, thermodynamic from solid, pH 6.5, text summary, read-out: solubilities in the FaSSCoF medium at pH 6.5
  solubility at 24 h: > 10 µg/mL
[7]; fasted-state simulated colonic fluid (FaSSCoF), 25 °C, pH 6.5, fassgf or other biorelevant, thermodynamic from solid, pH 6.5, 25° C., 24 h, read-out: pH 6.5 FaSSCoF Solubility Run 3
  solubility thermodynamic at 24 h: 10 µg/mL (≈ 14.3 µM)
[7]; pH 6.5, 25° C., 24 h
  pH 6.5 FaSSCoF Solubility Run 1: 0.016 mg/mL
  pH 6.5 FaSSCoF Solubility Run 2: 0.018 mg/mL
  pH 6.5 FaSSCoF Solubility Run 4: 0.011 mg/mL
[8]; Phase 1, one treatment day, 0.1 and 1.0 mg/mL
  ocular reactions compared with vehicle controls: no differences in the frequency, severity and incidence
[8]; Phase 1, single dosing day, 0.1 and 1.0 mg/mL
  local tolerability of the formulations: acceptable
[8]; Phase 2, three consecutive treatment days, 0.1 and 1.0 mg/mL
  local tolerability of the formulations: acceptable without any aggravation
[8]; rabbits, ocular 0.1 and 1.0 mg/mL, four daily instillations
  effects on body weight and food consumption: no effects on body weight, nor on food consumption
